Experimental data from US10556872B2, “Fatty acid synthase inhibitors and methods of use” (Hampton University, priority 2017, dated 2020).

Assays:
Type in all cases: cell-based
H460 lung cancer cells = experiment: MTT assay, cell viability of H460 lung cancer cells
Experimental: (§1) Antiproliferative effect of FAS inhibitors on MCF-7 cells was determined by performing MTT assay. Roughly, 10,000 cells per well were plated in 96-well cell culture microplate (Costar, USA) and incubated overnight in full media (DMEM containing 10% FBS) for cells to adhere to the plate. Cells were then treated with various concentrations of inhibitors and vehicle for 24 hrs in serum free media. Cell viability was evaluated by the MTT (Sigma-Aldrich, St. Louis, Mont.) assay. The absorbance of solubilized formazan was read at 570 nm using ELISA reader (Bio-TEK, Synergy-1).
(§2) We treated H460 lung cancer cells, MDA-MB-231 breast cancer cells, and PC-3 prostate cancer cells with the FAS inhibitor, Compound 1A.

[1] = test system: MDA-MB-231 breast cancer cells; experiment: MTT assay, cell viability of MDA-MB-231 breast cancer cells; conditions: MDA-MB-231 cells
Experimental: as §1, §2

[2] = test system: PC-3 prostate cancer cells; experiment: MTT assay, cell viability of PC-3 prostate cancer cells; conditions: PC-3 cells
Experimental: as §1, with “Cells were then treated with various concentrations of inhibitors and vehicle for 24 hrs in serum free media.” left out
as §2

[3] = test system: MCF-7 breast cancer cells; experiment: MTT assay, cell viability of MCF-7 breast cancer cells; conditions: Homo sapiens, MCF7; MCF-7 cells, 24 hours of treatment
Experimental: An MTT assay was performed with the FAS inhibiting compounds of Formulae II, III, IV and V (e.g., Compound 1A) on MCF-7 breast cancer cells, with an IC50 of about […] after 24 hours of treatment. The results are illustrated in FIG. 2.
as §1

O=C(CCn1cc(Br)c(=O)[nH]c1=O)OCCO [5-Bromouracil ester, 2-Hydroxyethyl3-(5-bromo-2,4-dioxo-3,4-dihydropirimidin-1(2H)-yl)propanoate]
anticancer effect (MTT assay), fragment alone (H460 lung cancer cells): no anticancer effect | anticancer effect (MTT assay), fragment alone [1]: no anticancer effect | anticancer effect (MTT assay), fragment alone [2]: no anticancer effect

O=c1[nH]cc(Br)c(=O)[nH]1 [5-Bromouracil]
anticancer effect (MTT assay), fragment alone (H460 lung cancer cells): no anticancer effect | anticancer effect (MTT assay), fragment alone [1]: no anticancer effect | anticancer effect (MTT assay), fragment alone [2]: no anticancer effect

CCCCCCCCCCCCCCCCOC(=O)CCn1cc(Br)c(=O)[nH]c1=O [Compound 1A, Hexadecyl 3-(5-bromo-2,4-dioxo-3,4-dihydropyrimidin-1(2H)-yl)propanoate]
IC50 [3]: ~10 µM | cell viability (MTT) (H460 lung cancer cells; 24-hr treatment (FIG. 4: 10 μM)): significantly reduced the viability | cell viability (MTT) ([1]; 24-hr treatment (FIG. 5: 10 μM)): significantly reduced the viability | cell viability (MTT) ([2]; 72-hr treatment (FIG. 6B: 10 μM)): reduced the viability
